US10793527B2, “Adenosine monophosphate-activated protein kinase agonist” (NATIONAL YANG-MING UNIVERSITY, priority 2016, dated 2020)

What was measured:
PLC/PRF/5 (PLC5) cells = test: Cell viability of liver cancer cells (Prestoblue), PLC5; type: cell-based; conditions: PLC5 cells, 48 hr
Method: Hepatoma cell Huh-7 was obtained from Health Science Research Resources Bank (HSRRB, Osaka. Japan; JCRB0403); Hepatoma cell PLC/PRF/5 (PLC5), Sk-Hep-1 and HCC1806 were obtained from the American Type Culture Collection (ATCC, Manassas, Va.). All cell lines are cultured immediately and frozen, so the frozen cells can be thawed every 3 months to allow experiments are conducted with the same batch of cells.
Analysis is performed using a commercial kit Prestoblue assay produced by Thermo Fisher Scientific. Three liver cancer cell lines PLC/PRF/5, SK-hep1, and Huh-7 are cultured with compound SCT-1015 for 48 hours and 72 hours, respectively. […] The results support that the compound of the present invention can activate AMPK to inhibit the proliferation of liver cancer cells.

AMPK T172 = test: Detection of AMPK phosphorylation by ELISA assay in PLC5 cells; type: cell-based; conditions: PLC5 cultured with 10 μM compound for 24 hours, compared to control group
Method: In this analysis, the commercial kit AMPK […] Phospho-ELISA Kit (KHO0651) produced by ThermoFisher Science is utilized. The hepatoma cell PLC5 is cultured with 10 μM of the compound for 24 hours, and the analysis is performed according to the manual, and the absorbance was detected at a wavelength of 450 nm.

Structure (SMILES)	IC50 (PLC/PRF/5 (PLC5) cells) [µM]	AMPK T172 activity (AMPK T172) [fold]
Cc1ccc(C(=O)Nc2ccc(Cl)c(C(F)(F)F)c2)cc1Nc1nccc(-c2ccc(C#N)cc2)n1 [SCT-1001, N-(4-chloro-3-(trifluoromethyl)phenyl)-(3)-((4-(4-cyanophenyl)pyrimidin-2-yl)amino)-4-methylbenzamide]	> 20	
Cc1ccc(C(=O)Nc2ccc(Cl)c(C(F)(F)F)c2)cc1Nc1nccc(-c2ccc(OC(F)(F)F)cc2)n1 [SCT-1010, N-(4-chloro-3-(trifluoromethyl)phenyl)-4-methyl-3-((4-(4-(trifluoromethoxy)phenyl)pyrimidin-2-yl)amino)benzamide]	> 20	1.0
Cc1ccc(C(=O)Nc2ccc(Cl)c(C(F)(F)F)c2)cc1Nc1nccc(-c2ccc[nH]2)n1 [SCT-1003, 3-((4-(1H-pyrrol-2-yl)pyrimidin-2-yl)amino)-N-(4-chloro-3-(trifluoromethyl)phenyl)-4-methylbenzamide]	> 20	1.1
Cc1ccc(C(=O)Nc2ccc(Cl)c(C(F)(F)F)c2)cc1Nc1nccc(-c2cccs2)n1 [SCT-1007, N-(4-chloro-3-(trifluoromethyl)phenyl)-4-methyl-3-((4-(thiophen-2-yl)pyrimidin-2-yl)amino)benzamide]	> 20	1.1
O=C(Nc1cccc(Nc2nccc(-c3ccc(C(F)(F)F)cc3)n2)c1)Nc1ccc(Cl)c(C(F)(F)F)c1 [SCT-1021, 1-(4-chloro-3-(trifluoromethyl)phenyl)-3-(3-((4-(4-(trifluoromethyl)phenyl)pyrimidin-2-yl)amino)phenyl)urea]	> 20	1.2
Cc1ccc(C(=O)Nc2ccc(Cl)c(C(F)(F)F)c2)cc1Nc1nccc(-c2ccc(C(F)(F)F)cc2)n1 [SCT-1011, N-(4-chloro-3-(trifluoromethyl)phenyl)-4-methyl-3-((4-(4-(trifluoromethyl)phenyl)pyrimidin-2-yl)amino)benzamide]	> 20	1.1
O=C(Nc1cccc(Nc2nccc(-c3cc(Cl)cc(Cl)c3)n2)c1)Nc1ccc(Cl)c(C(F)(F)F)c1 [SCT-1023, 1-(4-chloro-3-(trifluoromethyl)phenyl)-3-(3-((4-(3,5-dichlorophenyl)pyrimidin-2-yl)amino)phenyl)urea]	> 20	
CSc1cccc(-c2ccnc(Nc3cccc(NC(=O)Nc4ccc(Cl)c(C(F)(F)F)c4)c3)n2)c1 [SCT-1018, 1-(4-chloro-3-(trifluoromethyl)phenyl)-3-(3-((4-(3-(methylthio)phenyl)pyrimidin-2-yl)amino)phenyl)urea]	> 20	1.1
Cc1ccc(C(=O)Nc2ccc(Cl)c(C(F)(F)F)c2)cc1Nc1cc(-c2ccccc2)ncn1 [SCT-1006, N-(4-chloro-3-(trifluoromethyl)phenyl)-4-methyl-3-((6-phenylpyrimidin-4-yl)amino)benzamide]	> 20	1.3

The next lines start with results.

IC50 (PLC/PRF/5 (PLC5) cells) [µM]	Structure (SMILES)	AMPK T172 activity (AMPK T172) [fold]
> 20	COC(=O)c1cccc(NC(=O)Nc2cccc(Nc3nccc(-c4ccc[nH]4)n3)c2)c1 [SCT-1037]	
> 20	Cc1ccc(F)c(NC(=O)Nc2cccc(Nc3nccc(-c4ccc[nH]4)n3)c2)c1 [SCT-1034]	
> 20	COC(=O)c1cc(NC(=O)Nc2cccc(Nc3nccc(-c4ccc[nH]4)n3)c2)ccc1C [SCT-1039, Methyl 5-(3-(3-((4-(1H-pyrrol-2-yl)pyrimidin-2-yl)amino)phenyl)ureido)-2-methylbenzoate]	
> 20	CCc1cccc(NC(=O)Nc2cccc(Nc3nccc(-c4ccc[nH]4)n3)c2)c1 [SCT-1033]	
> 20	COC(=O)c1cc(NC(=O)Nc2cccc(Nc3nccc(-c4ccc[nH]4)n3)c2)ccc1Cl [SCT-1041, Methyl 5-(3-(3-((4-(1H-pyrrol-2-yl)pyrimidin-2-yl)amino)phenyl)ureido)-2-chlorobenzoate]	
> 20	O=C(Nc1cccc(Nc2nccc(-c3ccc[nH]3)n2)c1)Nc1cccc(C(=O)O)c1 [SCT-1038, 3-(3-(3-((4-(1H-pyrrol-2-yl)pyrimidin-2-yl)amino)phenyl)ureido)benzoic acid]	
